Test results: ChEMBL document CHEMBL3991601, “The target landscape of clinical kinase drugs” (Science, 2017)
The source made the active and inactive calls.

What was measured:
[1] = target: Serine/threonine-protein kinase ATR (Homo sapiens, UniProt Q13535)
[2] = target: Cyclin-dependent kinase 10 (Homo sapiens, UniProt Q15131)
[3] = target: Cyclin-dependent kinase 17 (Homo sapiens, UniProt Q00537)
[4] = target: Tyrosine-protein kinase Fgr (Homo sapiens, UniProt P09769)
[5] = target: Eukaryotic peptide chain release factor GTP-binding subunit ERF3B (Homo sapiens, UniProt Q8IYD1)
[6] = target: T1, Tyrosine-protein kinase Mer (Homo sapiens, UniProt Q12866)
T1 sequence (Q12866 whole entry): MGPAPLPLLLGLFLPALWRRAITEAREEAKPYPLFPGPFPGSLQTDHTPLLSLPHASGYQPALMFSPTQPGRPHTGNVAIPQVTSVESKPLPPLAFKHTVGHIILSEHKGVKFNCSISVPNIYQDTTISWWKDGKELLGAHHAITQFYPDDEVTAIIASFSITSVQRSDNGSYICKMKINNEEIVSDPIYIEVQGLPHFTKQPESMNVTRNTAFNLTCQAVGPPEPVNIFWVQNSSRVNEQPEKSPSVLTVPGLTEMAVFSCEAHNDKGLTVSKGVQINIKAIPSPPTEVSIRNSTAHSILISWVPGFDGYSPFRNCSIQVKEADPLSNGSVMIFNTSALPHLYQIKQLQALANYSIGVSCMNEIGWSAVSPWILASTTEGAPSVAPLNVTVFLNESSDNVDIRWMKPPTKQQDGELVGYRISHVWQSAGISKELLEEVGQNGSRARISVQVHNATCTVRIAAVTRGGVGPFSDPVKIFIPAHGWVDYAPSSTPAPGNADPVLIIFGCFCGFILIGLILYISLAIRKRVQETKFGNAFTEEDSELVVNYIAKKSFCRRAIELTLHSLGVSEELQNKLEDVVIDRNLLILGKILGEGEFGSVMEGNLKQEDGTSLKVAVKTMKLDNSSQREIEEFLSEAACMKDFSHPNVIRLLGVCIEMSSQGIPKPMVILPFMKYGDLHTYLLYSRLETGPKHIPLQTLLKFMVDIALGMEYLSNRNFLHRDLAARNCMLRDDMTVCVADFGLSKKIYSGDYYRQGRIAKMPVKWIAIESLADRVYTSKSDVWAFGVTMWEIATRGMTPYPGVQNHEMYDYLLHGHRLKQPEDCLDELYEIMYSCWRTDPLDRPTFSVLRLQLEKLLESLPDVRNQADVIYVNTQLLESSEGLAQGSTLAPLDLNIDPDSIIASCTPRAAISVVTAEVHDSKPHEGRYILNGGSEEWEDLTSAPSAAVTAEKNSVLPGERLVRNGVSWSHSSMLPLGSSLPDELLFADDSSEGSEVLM

[7] = target: Hepatocyte growth factor receptor (Homo sapiens, UniProt P08581)
[8] = target: Protein kinase C theta type (Homo sapiens, UniProt Q04759)
[9] = target: Serine/threonine-protein kinase 38-like (Homo sapiens, UniProt Q9Y2H1)
[10] = target: T2, Isoleucine--tRNA ligase, mitochondrial (Homo sapiens, UniProt Q9NSE4)
T2 sequence (Q9NSE4 whole entry): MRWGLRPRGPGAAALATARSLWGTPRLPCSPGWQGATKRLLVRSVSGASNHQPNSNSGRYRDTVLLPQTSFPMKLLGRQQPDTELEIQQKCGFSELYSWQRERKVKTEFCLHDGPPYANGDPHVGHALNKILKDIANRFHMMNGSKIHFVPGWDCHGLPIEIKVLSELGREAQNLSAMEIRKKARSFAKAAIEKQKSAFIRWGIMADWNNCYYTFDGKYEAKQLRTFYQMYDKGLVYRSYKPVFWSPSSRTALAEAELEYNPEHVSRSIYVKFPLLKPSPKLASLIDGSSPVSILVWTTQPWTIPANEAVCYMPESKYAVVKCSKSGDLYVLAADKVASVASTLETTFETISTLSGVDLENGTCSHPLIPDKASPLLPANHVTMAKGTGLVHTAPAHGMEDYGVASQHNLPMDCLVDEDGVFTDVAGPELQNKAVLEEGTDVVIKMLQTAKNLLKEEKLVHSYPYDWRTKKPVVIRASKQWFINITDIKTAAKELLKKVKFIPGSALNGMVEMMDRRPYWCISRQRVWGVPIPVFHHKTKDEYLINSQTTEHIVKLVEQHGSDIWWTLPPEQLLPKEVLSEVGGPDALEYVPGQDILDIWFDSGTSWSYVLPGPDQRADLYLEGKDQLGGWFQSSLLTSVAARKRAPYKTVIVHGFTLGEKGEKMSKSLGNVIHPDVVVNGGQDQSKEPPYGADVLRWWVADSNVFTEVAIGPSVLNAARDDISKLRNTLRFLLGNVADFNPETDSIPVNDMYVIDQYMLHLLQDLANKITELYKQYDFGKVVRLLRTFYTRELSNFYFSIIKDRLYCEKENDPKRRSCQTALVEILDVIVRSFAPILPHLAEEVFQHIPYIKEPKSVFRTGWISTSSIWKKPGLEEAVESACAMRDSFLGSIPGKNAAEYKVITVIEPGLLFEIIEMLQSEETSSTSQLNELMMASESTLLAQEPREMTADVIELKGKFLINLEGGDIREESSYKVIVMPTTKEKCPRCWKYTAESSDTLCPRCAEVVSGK

[11] = target: MAP kinase-activated protein kinase 3 (Homo sapiens, UniProt Q16644)
[12] = target: Dual specificity testis-specific protein kinase 1 (Homo sapiens, UniProt Q15569)
Misshapen-like kinase 1 = Misshapen-like kinase 1 (Homo sapiens, UniProt Q8N4C8)

Measured: Kd
Further: in the data inactive means no Kd found up to 30 µM.

Sequence of Hepatocyte growth factor receptor (P08581 whole entry): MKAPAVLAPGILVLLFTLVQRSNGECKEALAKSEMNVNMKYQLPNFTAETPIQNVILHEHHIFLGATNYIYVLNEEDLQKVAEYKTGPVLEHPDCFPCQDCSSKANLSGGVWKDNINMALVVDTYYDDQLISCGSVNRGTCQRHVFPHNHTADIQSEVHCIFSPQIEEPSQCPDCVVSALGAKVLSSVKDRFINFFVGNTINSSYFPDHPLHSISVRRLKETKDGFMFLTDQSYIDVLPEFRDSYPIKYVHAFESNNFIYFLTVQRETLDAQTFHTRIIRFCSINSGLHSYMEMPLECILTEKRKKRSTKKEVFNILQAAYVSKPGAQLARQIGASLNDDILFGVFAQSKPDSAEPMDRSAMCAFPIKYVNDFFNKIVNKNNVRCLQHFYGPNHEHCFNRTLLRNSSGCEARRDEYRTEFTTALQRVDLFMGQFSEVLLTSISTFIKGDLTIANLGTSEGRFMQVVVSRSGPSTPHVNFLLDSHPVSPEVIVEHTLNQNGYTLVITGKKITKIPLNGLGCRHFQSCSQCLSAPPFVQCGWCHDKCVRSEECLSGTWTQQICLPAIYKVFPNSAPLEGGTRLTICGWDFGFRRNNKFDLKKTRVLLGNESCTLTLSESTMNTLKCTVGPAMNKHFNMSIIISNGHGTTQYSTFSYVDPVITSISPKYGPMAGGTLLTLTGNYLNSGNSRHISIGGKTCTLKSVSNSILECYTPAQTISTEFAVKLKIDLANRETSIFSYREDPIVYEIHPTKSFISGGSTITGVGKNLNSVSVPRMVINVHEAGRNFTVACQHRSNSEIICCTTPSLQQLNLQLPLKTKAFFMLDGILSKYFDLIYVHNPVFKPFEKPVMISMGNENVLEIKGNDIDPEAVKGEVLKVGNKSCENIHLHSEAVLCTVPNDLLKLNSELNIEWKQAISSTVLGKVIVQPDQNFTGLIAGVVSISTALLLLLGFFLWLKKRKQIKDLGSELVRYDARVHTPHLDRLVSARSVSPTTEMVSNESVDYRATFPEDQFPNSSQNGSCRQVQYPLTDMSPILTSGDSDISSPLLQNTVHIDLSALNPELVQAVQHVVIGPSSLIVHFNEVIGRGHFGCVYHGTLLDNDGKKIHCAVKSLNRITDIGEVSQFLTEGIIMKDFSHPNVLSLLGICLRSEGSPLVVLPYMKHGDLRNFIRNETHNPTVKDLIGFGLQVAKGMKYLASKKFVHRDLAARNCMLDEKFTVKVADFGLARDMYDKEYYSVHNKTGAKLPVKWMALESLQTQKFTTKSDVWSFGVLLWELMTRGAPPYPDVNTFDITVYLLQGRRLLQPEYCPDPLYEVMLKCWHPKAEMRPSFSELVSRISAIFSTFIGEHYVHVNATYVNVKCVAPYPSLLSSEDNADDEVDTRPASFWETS
Sequence of Protein kinase C theta type (Q04759 whole entry): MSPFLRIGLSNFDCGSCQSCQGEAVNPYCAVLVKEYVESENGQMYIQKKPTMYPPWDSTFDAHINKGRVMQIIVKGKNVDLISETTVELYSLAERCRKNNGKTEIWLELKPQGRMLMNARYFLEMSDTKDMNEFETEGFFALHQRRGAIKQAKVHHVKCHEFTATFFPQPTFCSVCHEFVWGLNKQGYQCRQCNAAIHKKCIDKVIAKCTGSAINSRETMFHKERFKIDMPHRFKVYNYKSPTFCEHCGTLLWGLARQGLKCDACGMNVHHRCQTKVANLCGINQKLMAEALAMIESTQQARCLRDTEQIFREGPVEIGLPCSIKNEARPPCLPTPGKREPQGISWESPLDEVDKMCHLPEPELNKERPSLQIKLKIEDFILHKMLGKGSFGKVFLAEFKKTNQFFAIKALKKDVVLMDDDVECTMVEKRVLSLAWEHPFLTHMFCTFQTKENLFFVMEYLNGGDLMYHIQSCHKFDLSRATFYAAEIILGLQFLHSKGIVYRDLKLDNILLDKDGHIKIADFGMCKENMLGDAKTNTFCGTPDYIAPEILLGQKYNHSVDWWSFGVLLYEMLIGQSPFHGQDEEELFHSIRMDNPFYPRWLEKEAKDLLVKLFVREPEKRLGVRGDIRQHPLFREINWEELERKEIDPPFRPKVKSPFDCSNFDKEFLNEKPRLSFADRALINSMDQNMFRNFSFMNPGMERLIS
Sequence of Cyclin-dependent kinase 17 (Q00537 whole entry): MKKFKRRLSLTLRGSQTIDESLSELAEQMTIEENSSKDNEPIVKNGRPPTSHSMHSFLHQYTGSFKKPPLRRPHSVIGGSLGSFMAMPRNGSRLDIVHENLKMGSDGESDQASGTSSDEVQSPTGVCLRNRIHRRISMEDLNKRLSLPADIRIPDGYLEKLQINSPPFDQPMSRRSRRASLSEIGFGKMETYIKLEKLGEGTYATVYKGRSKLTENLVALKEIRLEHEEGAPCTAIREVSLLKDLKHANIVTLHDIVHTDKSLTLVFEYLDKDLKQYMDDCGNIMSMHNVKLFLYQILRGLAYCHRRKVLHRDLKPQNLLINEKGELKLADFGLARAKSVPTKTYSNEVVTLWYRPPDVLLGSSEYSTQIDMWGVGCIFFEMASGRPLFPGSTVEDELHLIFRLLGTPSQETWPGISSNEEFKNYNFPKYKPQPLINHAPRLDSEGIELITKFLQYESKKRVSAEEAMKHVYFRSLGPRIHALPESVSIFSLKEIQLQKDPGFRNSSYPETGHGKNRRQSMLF
Sequence of Cyclin-dependent kinase 10 (Q15131 whole entry): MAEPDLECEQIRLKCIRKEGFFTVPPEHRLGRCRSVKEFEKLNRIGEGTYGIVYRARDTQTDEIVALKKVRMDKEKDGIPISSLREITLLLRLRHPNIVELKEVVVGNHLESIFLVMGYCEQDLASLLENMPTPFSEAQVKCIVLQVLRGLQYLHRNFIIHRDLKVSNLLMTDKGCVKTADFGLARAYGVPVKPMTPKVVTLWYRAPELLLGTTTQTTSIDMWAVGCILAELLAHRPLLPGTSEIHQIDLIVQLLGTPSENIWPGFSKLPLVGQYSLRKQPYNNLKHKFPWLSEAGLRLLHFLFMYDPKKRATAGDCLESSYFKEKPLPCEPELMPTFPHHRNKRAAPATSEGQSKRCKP
Sequence of Eukaryotic peptide chain release factor GTP-binding subunit ERF3B (Q8IYD1 whole entry): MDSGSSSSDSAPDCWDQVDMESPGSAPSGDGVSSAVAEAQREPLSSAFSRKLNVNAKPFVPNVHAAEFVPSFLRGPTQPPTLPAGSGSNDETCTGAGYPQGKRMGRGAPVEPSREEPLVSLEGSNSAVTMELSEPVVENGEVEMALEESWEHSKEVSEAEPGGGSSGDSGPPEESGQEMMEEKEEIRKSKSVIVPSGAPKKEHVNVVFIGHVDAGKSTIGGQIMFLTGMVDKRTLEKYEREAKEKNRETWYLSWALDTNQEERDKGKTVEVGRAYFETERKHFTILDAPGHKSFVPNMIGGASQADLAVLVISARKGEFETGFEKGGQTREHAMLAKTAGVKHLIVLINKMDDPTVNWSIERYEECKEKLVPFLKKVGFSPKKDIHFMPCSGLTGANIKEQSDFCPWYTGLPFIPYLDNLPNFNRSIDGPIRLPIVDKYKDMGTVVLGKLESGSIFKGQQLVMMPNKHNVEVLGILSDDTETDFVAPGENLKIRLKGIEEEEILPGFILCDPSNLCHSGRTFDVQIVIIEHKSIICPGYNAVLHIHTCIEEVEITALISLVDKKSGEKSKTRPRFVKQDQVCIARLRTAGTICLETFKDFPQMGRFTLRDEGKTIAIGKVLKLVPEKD
Sequence of Tyrosine-protein kinase Fgr (P09769 whole entry): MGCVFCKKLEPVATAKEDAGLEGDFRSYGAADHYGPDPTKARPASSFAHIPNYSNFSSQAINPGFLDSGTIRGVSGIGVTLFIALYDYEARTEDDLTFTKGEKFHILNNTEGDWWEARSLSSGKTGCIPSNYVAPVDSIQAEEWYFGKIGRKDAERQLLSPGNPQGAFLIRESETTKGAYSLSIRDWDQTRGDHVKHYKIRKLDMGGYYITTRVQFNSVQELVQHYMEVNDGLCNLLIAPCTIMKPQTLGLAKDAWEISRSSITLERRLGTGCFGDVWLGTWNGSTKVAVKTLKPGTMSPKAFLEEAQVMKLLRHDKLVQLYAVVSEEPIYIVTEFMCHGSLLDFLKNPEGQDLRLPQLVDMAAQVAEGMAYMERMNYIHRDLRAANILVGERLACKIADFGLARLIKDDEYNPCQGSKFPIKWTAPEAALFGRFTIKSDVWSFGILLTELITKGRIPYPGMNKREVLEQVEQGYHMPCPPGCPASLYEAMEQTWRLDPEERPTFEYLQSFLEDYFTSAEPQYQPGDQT
Sequence of MAP kinase-activated protein kinase 3 (Q16644 whole entry): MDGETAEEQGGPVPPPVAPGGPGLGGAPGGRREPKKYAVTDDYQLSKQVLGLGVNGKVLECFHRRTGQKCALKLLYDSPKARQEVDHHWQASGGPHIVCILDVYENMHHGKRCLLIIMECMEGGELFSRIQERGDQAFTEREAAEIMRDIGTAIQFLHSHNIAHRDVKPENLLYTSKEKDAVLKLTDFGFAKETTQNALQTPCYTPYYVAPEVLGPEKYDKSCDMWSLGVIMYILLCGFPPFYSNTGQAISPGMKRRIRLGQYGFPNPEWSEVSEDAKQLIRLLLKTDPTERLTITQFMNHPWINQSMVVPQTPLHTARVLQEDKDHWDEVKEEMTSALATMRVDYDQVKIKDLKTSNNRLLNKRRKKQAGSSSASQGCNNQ
Sequence of Serine/threonine-protein kinase 38-like (Q9Y2H1 whole entry): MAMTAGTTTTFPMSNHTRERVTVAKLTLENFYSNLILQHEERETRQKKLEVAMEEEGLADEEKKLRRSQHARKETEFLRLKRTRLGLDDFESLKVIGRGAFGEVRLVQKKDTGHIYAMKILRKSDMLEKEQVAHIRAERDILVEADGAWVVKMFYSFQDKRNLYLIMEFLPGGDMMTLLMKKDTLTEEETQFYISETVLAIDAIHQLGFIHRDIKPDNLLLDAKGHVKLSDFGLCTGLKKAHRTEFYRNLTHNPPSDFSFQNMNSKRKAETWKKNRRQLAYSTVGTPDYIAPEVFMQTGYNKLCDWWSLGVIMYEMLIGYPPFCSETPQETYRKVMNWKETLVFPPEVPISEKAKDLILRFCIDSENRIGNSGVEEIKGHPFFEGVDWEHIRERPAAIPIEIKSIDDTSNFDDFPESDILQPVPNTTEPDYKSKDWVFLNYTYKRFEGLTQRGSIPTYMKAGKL

CCCS(=O)(=O)Nc1ccc(F)c(C(=O)c2c[nH]c3ncc(-c4ccc(Cl)cc4)cc23)c1F [VEMURAFENIB]
inactive: [1] > 30 µM | [2] > 30 µM | [3] > 30 µM | [4] > 30 µM | [5] > 30 µM | [6] > 30 µM | [7] > 30 µM | [8] > 30 µM | [9] > 30 µM

CC(C)Nc1cc(-c2c[nH]c(C(=O)N[C@H](CO)c3cccc(Cl)c3)c2)c(Cl)cn1 [ULIXERTINIB]
inactive: [2] > 30 µM | [3] > 30 µM | [5] > 30 µM | [10] > 30 µM | [11] > 30 µM | [6] > 30 µM | [7] > 30 µM | [8] > 30 µM | [12] > 30 µM

CC(=O)Nc1cccc(-n2c(=O)n(C3CC3)c(=O)c3c(Nc4ccc(I)cc4F)n(C)c(=O)c(C)c32)c1 [TRAMETINIB]
inactive: [2] > 30 µM | [3] > 30 µM | [4] > 30 µM | [5] > 30 µM | [10] > 30 µM | [11] > 30 µM | [7] > 30 µM | Misshapen-like kinase 1 > 30 µM | [8] > 30 µM | [12] > 30 µM
